Experimental findings from patent publication US6218406A, “Farnesyl transferase inhibitors, their preparation, the pharmaceutical compositions which contain them and their use in the preparation of medicaments” (Aventis Pharma S.A., priority 1996, dated 2001) are described below.

One may read the IC50 as the concentration that inhibits the measured activity by half.

The subject of experiment [1] is HCT116 human colic carcinoma line. Briefly: In vivo antitumour test, human carcinoma grafted subcutaneously into mice. The conditions noted are these: 400 mg/kg/adm., orally. The procedure: The influence of the compounds according to the invention, administered to mice, on the growth of carcinomas of human origin grafted subcutaneously into these mice was studied.
On day 0 of the experiment, the mice received a tumour fragment (30-60 mg) bilaterally under the skin using a trocar. The bilateral implantation of the tumours ensured a more uniform tumour weight per mouse and thus made it possible to reduce the number of animals per group. The mice were then divided into the different treated and untreated groups.
The product was suspended in an aqueous solution at concentrations that ranged from […], corresponding to doses of 0.1 to 10,000 mg/kg.
The treatments or their possible excipient were administered every day orally, at a maximum volume of 0.2 ml, the duration of administration depending on the doubling time of the tumour.
The tumours were measured 2 to 3 times per week, using a calliper rule, according to two measurements in mm, which were subsequently converted into tumour weight according to the following formula:
tumour weight (mg)=Length (mm)×width^2 (mm^2)/2
An active product was a product which made it possible to limit the growth of the tumour after it had been administered.

Another experiment deals with farnesyl transferase (Homo sapiens, UniProt P49354+P49356). Briefly: Farnesyl transferase inhibition, [3H]-farnesylation of biotinylated K-ras C-terminal peptide (SPA assay). The conditions noted are these: K-Ras substrate; 60 min at 37° C.; mean of two IC50 values; read-out: In vitro inhibitory activity (K-Ras) IC50. Format: biochemical.

As for `C=C(C(=O)N1C[C@H]2[C@@]3(c4ccc(C)cc4)CC[C@H](c4ccccc43)[C@@]2(C(=O)O)C1)c1ccccc1OC` (single isomer, unassigned) [Example 3, dextrorotatory enantiomer of (3aRS,4SR,9RS,9aRS)-4,9-ethano-2-[2-(2-methoxyphenyl)propenoyl]-9-(4-methylphenyl)-2,3,3a,4,9,9a-hexahydro-1H-benzo[f]isoindole-3a-carboxylic acid], the Tumour stabilization entry in experiment [1] is given as “Tumour stabilization”. Besides, the half-inhibitory concentration (IC50) at farnesyl transferase was found to be 28 nM.

`C=C(C(=O)N1CC2C3(c4ccc(OC)cc4)CCC(c4ccccc43)C2(C(=O)NC(C(=O)O)c2ccccc2)C1)c1ccccc1OC` (stereo not drawn) [Example 81, (RS)- and (SR)-2-{(3aRS,4SR,9SR,9aRS)-4,9-ethano-9-(4-methoxyphenyl)-2-[2-(2-methoxyphenyl)propenoyl]-2,3,3a,4,9,9a-hexahydro-1H-benzo[f]isoindole-3a-carbonylamino}phenylacetic Acids]: at farnesyl transferase, the 50% inhibitory concentration (IC50) stood at 18 nM.
